Assay [1] concerns the target T1, Dihydrofolate reductase (Homo sapiens, UniProt P00374).
T1 sequence (P00374 whole entry): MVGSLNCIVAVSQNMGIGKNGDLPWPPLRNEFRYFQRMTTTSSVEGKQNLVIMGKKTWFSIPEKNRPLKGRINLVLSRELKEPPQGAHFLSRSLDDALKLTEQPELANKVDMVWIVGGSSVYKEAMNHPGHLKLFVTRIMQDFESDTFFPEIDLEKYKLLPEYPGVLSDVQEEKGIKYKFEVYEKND
The assay can be described thus: Competitive inhibition of mammalian dihydrofolate reductase.

The subject of assay [2] is TA3. The assay can be described thus: Evaluated for the concentration needed for 50% growth inhibition of mouse mammary adenocarcinoma cells (TA3) in culture. It is filed as functional. The note with it: TA3, read-out: ID50.
The test system of assay [3] is TA3. The assay can be described thus: Evaluated for the concentration needed for 50% growth inhibition of mouse mammary adenocarcinoma cells (TA3) in culture. It is filed as functional. The note with it: TA3, read-out: ID50.
The target in assay [4] is T1, Dihydrofolate reductase. The assay can be described thus: Noncompetitive inhibition of mammalian Dihydrofolate reductase.

Structures are written as SMILES.

In the case of `Cc1nc(N)nc(N)c1NC(=O)C12CC3CC(CC(C3)C1)C2`, the inhibitory constant (Ki) at Dihydrofolate reductase [1] is 9 nM.

Consider `Cc1nc(N)nc(N)c1C12CC3CC(CC(C3)C1)C2`, for which the IC50 in the assay with TA3 [2] stood at 6 nM.

As to `CCc1nc(N)nc(N)c1C12CC3CC(CC(C3)C1)C2`, the IC50 in the assay on TA3 [2] turned out to be 0.25 nM.

In the case of `Cc1nc(N)nc(N)c1-c1ccc2ccccc2c1`, the IC50 in the assay with TA3 [3] worked out at 70 nM.

Turning to `Cc1nc(N)nc(N)c1-c1cccc2ccccc12`, the affinity on Dihydrofolate reductase [4] corresponds to a Ki of 56000 nM. This counts as double-digit micromolar.

For the molecule `CN(Cc1cnc2nc(N)nc(N)c2n1)c1ccc(C(=O)N[C@@H](CCC(=O)O)C(=O)O)cc1` [METHOTREXATE], the IC50 in the assay with TA3 [3] was 8 nM.

For orientation: Ki means a dissociation constant, usually derived from enzyme kinetics or from competition with a known ligand. A high value points to weaker binding.

Values taken from ChEMBL document CHEMBL1122041, “Molecular structures of 2,4-diaminopyrimidine antifolates with antineoplastic activity” (J Med Chem, 1982).
